From ChEMBL document CHEMBL1201862, “PubChem BioAssay data set” (2004)
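Results reflect a 48-hour exposure of cells in 96-well plates to compound at five concentrations. Here, GI50 denotes the concentration required for 50% inhibition of growth.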 Active and inactive are the calls of the source. Cut-off read from the data, not from the text of the source: active = GI50 up to about 1.1 µM and inactive = higher.

Assays:
Experiment in all cases: DTP human tumour cell line panel, 48 h
NCI/ADR-RES = test system: NCI/ADR-RES
SK-OV-3 = test system: SK-OV-3
RXF 393 = test system: RXF 393
IGROV-1 = test system: IGROV-1
HOP-92 = test system: HOP-92
HL-60 = test system: HL-60
EKVX = test system: EKVX
M14 = test system: M14
LOX IMVI = test system: LOX IMVI
K562 = test system: K562
OVCAR-8 = test system: OVCAR-8
SK-MEL-5 = test system: SK-MEL-5
UO-31 = test system: UO-31
NCI-H522 = test system: NCI-H522
TK-10 = test system: TK-10
SN12C = test system: SN12C
HOP-62 = test system: HOP-62
ACHN = test system: ACHN
MDA-N = test system: MDA-N

SMILES	GI50 (NCI/ADR-RES)	GI50 (SK-OV-3)	GI50 (RXF 393)	GI50 (IGROV-1)	GI50 (HOP-92)	GI50 (HL-60)	GI50 (EKVX)	GI50 (M14)	GI50 (LOX IMVI)	GI50 (K562)	GI50 (OVCAR-8)	GI50 (SK-MEL-5)	GI50 (UO-31)	GI50 (NCI-H522)	GI50 (TK-10)	GI50 (SN12C)	GI50 (HOP-62)	GI50 (ACHN)	GI50 (MDA-N)
Cn1ncc2c(Nc3cccc(Cl)c3)nc(Nc3cccc(Cl)c3)nc21	9.71 µM (inactive)	20 µM (inactive)	3.48 µM (inactive)	12.2 µM (inactive)	10.9 µM (inactive)	7.94 µM (inactive)	14.5 µM (inactive)	6.7 µM (inactive)	5.82 µM (inactive)	1.75 µM (inactive)	10.9 µM (inactive)	> 35.6 µM (inactive)	9.73 µM (inactive)	8.93 µM (inactive)	11.5 µM (inactive)	20.7 µM (inactive)	17.3 µM (inactive)	10.5 µM (inactive)	
COC1/C=C(C)/C=C/C(C)/C=C/C(=O)OC(/C(C)=C/C=C(\C)CNC(=O)[C@H](CO)NC=O)C(C)/C=C/C=C/C(OC)CC/C=C(C)/C=C/C1 (stereo partly drawn)	0.407 µM (active)	> 1 µM (active)	0.158 µM (active)	0.262 µM (active)	0.0447 µM (active)	0.0225 µM (active)	0.139 µM (active)	0.0183 µM (active)	0.0265 µM (active)	0.0192 µM (active)	0.0399 µM (active)	0.0231 µM (active)	0.197 µM (active)		0.356 µM (active)		0.0224 µM (active)	0.0474 µM (active)	
CCC1(CN(C)C)CC/C(=C\c2ccc3c(c2)OCO3)C1=O (stereo not drawn)			> 100 µM (inactive)	> 100 µM (inactive)	> 100 µM (inactive)	11.4 µM (inactive)	52.1 µM (inactive)	> 100 µM (inactive)	> 100 µM (inactive)	65.9 µM (inactive)	91.6 µM (inactive)	62.5 µM (inactive)	91.8 µM (inactive)	49.9 µM (inactive)	> 100 µM (inactive)	> 100 µM (inactive)	> 100 µM (inactive)	> 100 µM (inactive)	
NNC(=S)N/N=C(\C(=O)Nc1cccc(O)c1)C1C(=O)NC(=S)NC1=O	> 100 µM (inactive)	> 100 µM (inactive)	> 100 µM (inactive)	> 100 µM (inactive)	> 100 µM (inactive)	> 100 µM (inactive)	> 100 µM (inactive)	> 100 µM (inactive)	> 100 µM (inactive)	> 100 µM (inactive)	> 100 µM (inactive)	> 100 µM (inactive)	> 100 µM (inactive)	> 100 µM (inactive)	> 100 µM (inactive)	> 100 µM (inactive)	> 100 µM (inactive)	> 100 µM (inactive)	
CC(=O)OC12C=CC(=O)N1c1ccccc1C(=O)O2 (stereo not drawn)		> 100 µM (inactive)	> 100 µM (inactive)	> 100 µM (inactive)	> 100 µM (inactive)	> 100 µM (inactive)	> 100 µM (inactive)	> 100 µM (inactive)	> 100 µM (inactive)	> 100 µM (inactive)	> 100 µM (inactive)	> 100 µM (inactive)	> 100 µM (inactive)	> 100 µM (inactive)	> 100 µM (inactive)	> 100 µM (inactive)	> 100 µM (inactive)	> 100 µM (inactive)	
CCC(CC)NC1=C(NC(C)=O)C(=O)c2ccccc2C1=O		> 50 µM (inactive)	> 50 µM (inactive)	> 50 µM (inactive)	0.339 µM (active)	> 50 µM (inactive)	> 50 µM (inactive)	> 50 µM (inactive)	> 50 µM (inactive)	> 50 µM (inactive)	> 50 µM (inactive)	> 50 µM (inactive)	> 50 µM (inactive)	> 50 µM (inactive)	> 50 µM (inactive)	> 50 µM (inactive)	> 50 µM (inactive)	> 50 µM (inactive)	
C=CCCC(C)N(C(=O)OC(C)(C)C)S(=O)(=O)c1ccc(C)cc1 (stereo not drawn)		> 100 µM (inactive)		> 100 µM (inactive)	40.2 µM (inactive)	> 100 µM (inactive)		> 100 µM (inactive)	> 100 µM (inactive)	> 100 µM (inactive)	> 100 µM (inactive)		> 100 µM (inactive)	> 100 µM (inactive)	> 100 µM (inactive)	> 100 µM (inactive)	> 100 µM (inactive)	> 100 µM (inactive)	
COc1ccc(NC(=O)C(C#N)=C(SC)SC)cc1		> 100 µM (inactive)	> 100 µM (inactive)	58.6 µM (inactive)	15.8 µM (inactive)	75.3 µM (inactive)	> 100 µM (inactive)	> 100 µM (inactive)	> 100 µM (inactive)	> 100 µM (inactive)		> 100 µM (inactive)	60.3 µM (inactive)	57.1 µM (inactive)	> 100 µM (inactive)	> 100 µM (inactive)	> 100 µM (inactive)	> 100 µM (inactive)	> 100 µM (inactive)
CCN1CCCc2cc3c(C(F)(F)F)cc(=O)oc3cc21		> 100 µM (inactive)	20.6 µM (inactive)	> 100 µM (inactive)	33.3 µM (inactive)	0.0258 µM (active)	8.11 µM (inactive)	> 100 µM (inactive)	82.2 µM (inactive)	63.8 µM (inactive)	91.6 µM (inactive)	28.6 µM (inactive)	> 100 µM (inactive)	55.5 µM (inactive)	> 100 µM (inactive)	99.8 µM (inactive)	> 100 µM (inactive)	87.9 µM (inactive)	> 100 µM (inactive)
CC(C)[Si]1(C(C)C)OCC2OC(n3ccc(=O)[nH]c3=O)C(O)(CO)C2O[Si](C(C)C)(C(C)C)O1 (stereo not drawn)	16 µM (inactive)	16.4 µM (inactive)	15.6 µM (inactive)	11.6 µM (inactive)	10.5 µM (inactive)	14.4 µM (inactive)	14.2 µM (inactive)	19.1 µM (inactive)	15.8 µM (inactive)	18.4 µM (inactive)	15.5 µM (inactive)	15.1 µM (inactive)	10.2 µM (inactive)		17.4 µM (inactive)	15.8 µM (inactive)	19.4 µM (inactive)	17.1 µM (inactive)	
COc1ccc(C2C=C(c3ccccc3)Nc3nnnn32)cc1 (stereo not drawn)	> 100 µM (inactive)	31.7 µM (inactive)	20.3 µM (inactive)	82.8 µM (inactive)		> 100 µM (inactive)		68.2 µM (inactive)	41.7 µM (inactive)	50.6 µM (inactive)	47.4 µM (inactive)	34.4 µM (inactive)	90.8 µM (inactive)	17.9 µM (inactive)	6.27 µM (inactive)	> 100 µM (inactive)	25.5 µM (inactive)	24.1 µM (inactive)	45.1 µM (inactive)
C/C(=N\Nc1nc2ccccc2s1)c1ncccn1	0.0172 µM (active)	0.103 µM (active)	1.04 µM (active)	0.0183 µM (active)	< 0.0276 µM (active)	< 0.01 µM (active)	< 0.0111 µM (active)	< 0.0194 µM (active)		< 0.0501 µM (active)	< 0.016 µM (active)	0.03 µM (active)	0.022 µM (active)	0.0128 µM (active)		< 0.0204 µM (active)	0.131 µM (active)	< 0.01 µM (active)	
CC(ON1[C@](C)(c2ccccc2)CC[C@@]1(C)c1ccccc1)c1ccccc1 (stereo partly drawn)	48.2 µM (inactive)	> 100 µM (inactive)	20.4 µM (inactive)	52 µM (inactive)	21.4 µM (inactive)	23.6 µM (inactive)	23.8 µM (inactive)	24.2 µM (inactive)	31.2 µM (inactive)	33 µM (inactive)	48.2 µM (inactive)	30 µM (inactive)	37.9 µM (inactive)	15.3 µM (inactive)	> 100 µM (inactive)	45.6 µM (inactive)	83.4 µM (inactive)		
CC1OC(=O)C(O)=C1O (stereo not drawn)		> 100 µM (inactive)	> 100 µM (inactive)	> 100 µM (inactive)	> 100 µM (inactive)		> 100 µM (inactive)	> 100 µM (inactive)	> 100 µM (inactive)	> 100 µM (inactive)	> 100 µM (inactive)	> 100 µM (inactive)	> 100 µM (inactive)	> 100 µM (inactive)	> 100 µM (inactive)	> 100 µM (inactive)	> 100 µM (inactive)	> 100 µM (inactive)	
CC#CCCCC1(C)CCNC1=S (stereo not drawn)		> 10 µM (inactive)	> 10 µM (inactive)		> 10 µM (inactive)	> 10 µM (inactive)	> 10 µM (inactive)	> 10 µM (inactive)	> 10 µM (inactive)	> 10 µM (inactive)	> 10 µM (inactive)		> 10 µM (inactive)	> 10 µM (inactive)	> 10 µM (inactive)	> 10 µM (inactive)		> 10 µM (inactive)	> 10 µM (inactive)
CC1=C(C(=O)NC2CCCCC2)CC(C(=O)NC2CCCCC2)=C(C)N1		> 100 µM (inactive)	> 100 µM (inactive)	> 100 µM (inactive)	33 µM (inactive)	71.6 µM (inactive)	> 100 µM (inactive)	> 100 µM (inactive)	> 100 µM (inactive)	57.4 µM (inactive)		> 100 µM (inactive)	> 100 µM (inactive)	> 100 µM (inactive)	39.2 µM (inactive)	> 100 µM (inactive)	> 100 µM (inactive)	> 100 µM (inactive)	> 100 µM (inactive)
CC(=O)C(=CNc1c(C)n(C)n(-c2ccccc2)c1=O)C(C)=O	> 100 µM (inactive)	> 100 µM (inactive)	> 100 µM (inactive)	> 100 µM (inactive)	> 100 µM (inactive)	> 100 µM (inactive)	> 100 µM (inactive)	> 100 µM (inactive)	> 100 µM (inactive)	> 100 µM (inactive)	> 100 µM (inactive)	> 100 µM (inactive)	> 100 µM (inactive)	> 100 µM (inactive)	> 100 µM (inactive)	> 100 µM (inactive)		> 100 µM (inactive)	
